Experimental data reported in a compilation of properties of binary mixtures (doi:10.1007/s10953-015-0325-1).

Experiment: xn = mol fraction of the nth substance listed
Conditions: 100 kPa

CCCN + CCCCCCCC[n+]1ccn(C)c1.F[P-](F)(F)(F)(F)F
speed of sound [m/s]
Conditions | x1 = 0.0976 | x1 = 0.218 | x1 = 0.263 | x1 = 0.3677 | x1 = 0.4676 | x1 = 0.5629 | x1 = 0.6971 | x1 = 0.7972 | x1 = 0.9087 | x1 = 1
293.15 K | 1408 | 1392.4 | 1388.7 | 1375.5 | 1363.8 | – | 1327.2 | 1296.3 | 1260.5 | –
298.15 K | 1393.2 | 1378.7 | 1375 | – | – | 1335.9 | – | – | 1244 | 1213.9
303.15 K | 1381.2 | 1362.6 | 1358.9 | 1344.5 | 1332.1 | 1316.2 | – | 1260.7 | – | –
308.15 K | 1368.6 | 1348.2 | – | 1330.1 | 1314.1 | 1299.6 | 1270.5 | 1239.1 | – | 1164.9
313.15 K | – | 1333.4 | – | 1312.1 | 1295.8 | 1278.5 | – | 1218.2 | 1177.2 | 1140.4

CCCN + CCCCCC[n+]1ccn(C)c1.F[P-](F)(F)(F)(F)F
x1 = 1
Conditions | speed of sound [m/s]
293.15 K | 1238.3
303.15 K | 1189.5
308.15 K | 1164.9
313.15 K | 1140.4

CCCN + CCCC[n+]1ccn(C)c1.F[P-](F)(F)(F)(F)F
speed of sound [m/s]
Conditions | x1 = 0.0684 | x1 = 0.155 | x1 = 0.2613 | x1 = 0.3519 | x1 = 0.4366 | x1 = 0.5956 | x1 = 0.69 | x1 = 0.79 | x1 = 0.9026 | x1 = 1
293.15 K | 1444.7 | 1429.8 | 1407.5 | – | 1371.3 | – | 1315 | 1288.8 | – | –
298.15 K | – | 1419.3 | 1395 | – | 1355.3 | 1320.6 | – | 1269.5 | 1235.5 | –
303.15 K | – | – | 1380.5 | – | 1338 | – | 1277.6 | 1247.8 | – | 1189.5
308.15 K | 1412.4 | – | 1365.2 | 1341 | 1319.8 | 1280.4 | 1257 | 1225.2 | 1189.2 | 1164.9
313.15 K | 1399.6 | 1380.1 | 1348.8 | 1324.5 | 1300 | – | – | 1202.5 | 1165.5 | 1140.4

CCCCCCCC[n+]1ccn(C)c1.F[P-](F)(F)(F)(F)F + CCCN
x2 = 0
Conditions | speed of sound [m/s]
293.15 K | 1421.2
298.15 K | 1406.4
308.15 K | 1378.8
313.15 K | 1365.7

CCCCCC[n+]1ccn(C)c1.F[P-](F)(F)(F)(F)F + CCCN
speed of sound [m/s]
Conditions | x2 = 0 | x2 = 0.0873 | x2 = 0.1718 | x2 = 0.2686 | x2 = 0.3426 | x2 = 0.4606 | x2 = 0.5627 | x2 = 0.6597 | x2 = 0.7913 | x2 = 0.902
293.15 K | 1436.9 | – | 1411 | 1396.5 | 1385.5 | 1365.7 | 1347.1 | 1324 | 1289.8 | 1258.5
298.15 K | 1423.5 | 1408 | – | 1382.6 | 1370.4 | 1350.8 | 1330.3 | 1309 | 1271.5 | 1238.6
303.15 K | 1410.6 | 1396.1 | – | 1366.5 | 1354.3 | – | – | 1291.1 | 1253.1 | 1216.1
308.15 K | 1398.2 | – | 1370.6 | 1351.7 | 1337.3 | 1315.3 | – | – | 1230.8 | 1193
313.15 K | – | 1372.5 | 1357.5 | 1336.2 | 1320.4 | 1297.1 | – | 1250 | – | 1170

CCCC[n+]1ccn(C)c1.F[P-](F)(F)(F)(F)F + CCCN
x2 = 0
Conditions | speed of sound [m/s]
293.15 K | 1454.7
298.15 K | 1442.4
303.15 K | 1430.3
308.15 K | 1418.5
313.15 K | 1406.8
